Source: PubChem BioAssay (NCI)
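Assay format: 96-well plates, 48-hour exposure. Definition used: TGI = concentration required for complete inhibition of growth.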 Where a SMILES comes first, the peptide text is derived from it. [ ]: non-standard residue; d: D form. The star is where a group is joined. ξ: configuration not given here. NMeF = CN[C@@H](Cc1ccccc1)C(=O)O; ξNMeV = CNC(C(=O)O)C(C)C; Boc = CC(C)(C)OC(=O)*; OBn = c1ccc(CO*)cc1

Assays:
Experiment in all cases: DTP human tumour cell line panel, 48 h
[1] = test system: LOX IMVI melanoma
[2] = test system: MDA-MB-231 breast
[3] = test system: MALME-3M melanoma
[4] = test system: OVCAR-5 ovarian
[5] = test system: SF-268 CNS
[6] = test system: NCI/ADR-RES ovarian
[7] = test system: HL-60(TB) leukemia
[8] = test system: HCC-2998 colon
[9] = test system: SK-MEL-2 melanoma
[10] = test system: UACC-257 melanoma
[11] = test system: SF-539 CNS
[12] = test system: OVCAR-8 ovarian
[13] = test system: UO-31 renal
[14] = test system: SK-OV-3 ovarian
[15] = test system: EKVX NSCLC
[16] = test system: DU-145 prostate
[17] = test system: T-47D breast
[18] = test system: A549 NSCLC
[19] = test system: UACC-62 melanoma
[20] = test system: BT-549 breast

Row | SMILES | TGI [1] [µM] | TGI [2] [µM] | TGI [3] [µM] | TGI [4] [µM] | TGI [5] [µM] | TGI [6] [µM] | TGI [7] [µM] | TGI [8] [µM] | TGI [9] [µM] | TGI [10] [µM] | TGI [11] [µM] | TGI [12] [µM] | TGI [13] [µM] | TGI [14] [µM] | TGI [15] [µM] | TGI [16] [µM] | TGI [17] [µM] | TGI [18] [µM] | TGI [19] [µM] | TGI [20] [µM]
1 | O=C(/C=C(\Nc1ccccc1O)c1ccccc1)C(=O)NC12CC3CC(CC(C3)C1)C2 | > 10 | > 10 | > 10 | > 10 | > 10 | > 10 | > 10 | > 10 | > 10 | > 10 | > 10 | > 10 | > 10 | > 10 | > 10 | > 10 | > 10 | – | – | –
2 | CC(C)C(C(=O)N1CCC[C@@H]1C(=O)OCc1ccccc1)N(C)C(=O)C(C(C)C)N(C)C(=O)[C@H](Cc1ccccc1)N(C)C(=O)[C@H](NC(=O)OC(C)(C)C)C(C)C (stereo not given in full) (Boc-[dV][NMeF][ξNMeV][ξNMeV][dP]-OBn) | > 100 | – | > 100 | > 100 | > 100 | – | > 100 | > 100 | > 100 | > 100 | > 100 | > 100 | > 100 | > 100 | > 100 | – | – | > 100 | > 100 | –
3 | CC(C)C(=O)/C=C/c1ccc(Cl)cc1 | 22.2 | – | – | 35.4 | 67.5 | – | 28.8 | 31.9 | 35.4 | 40.6 | 22.6 | – | 24.5 | > 100 | – | – | – | 59.7 | 36.4 | –
4 | COc1cc(C(C)c2cc3c(cc2OCCCCOc2cc4c(cc2C(C)c2cc(OC)c(OC)c(OC)c2)OCO4)OCO3)cc(OC)c1OC (stereo not given) | > 100 | – | > 100 | > 100 | > 100 | – | > 100 | > 100 | > 100 | > 100 | 55.4 | > 100 | > 100 | 91.8 | > 100 | – | – | > 100 | > 100 | –
5 | NCC(NC(=O)OCc1ccccc1)C(=O)O (stereo not given) | > 50 | – | > 50 | > 50 | > 50 | – | > 50 | > 50 | > 50 | > 50 | > 50 | > 50 | > 50 | > 50 | > 50 | – | – | > 50 | > 50 | –
6 | O=C1C2CCC(C2)C12CC1(c3ccccc3)C(=O)c3ccccc3N1O2 (stereo not given) | – | – | > 100 | – | > 100 | – | > 100 | > 100 | – | > 100 | > 100 | > 100 | > 100 | > 100 | > 100 | – | – | > 100 | > 100 | –
7 | O=c1cc(CC(O)(C(F)(F)Cl)C(F)(F)Cl)[nH]n1-c1ccccc1 | > 100 | > 100 | > 100 | > 100 | > 100 | > 100 | > 100 | > 100 | – | > 100 | > 100 | > 100 | > 100 | > 100 | > 100 | > 100 | > 100 | > 100 | > 100 | –
8 | COc1ccc([N-]/C(=N\n2c(=O)c(C)nn(C)c2=S)N(c2ccc(OC)cc2)c2nn3c(=O)c(C)n[n+](C)c3s2)cc1 | > 100 | – | – | > 100 | > 100 | – | > 100 | – | – | > 100 | > 100 | > 100 | – | – | > 100 | – | – | > 100 | > 100 | –
9 | COc1ccc(C2ON(c3ccccn3)CC=C2C)cc1 (stereo not given) | > 100 | – | > 100 | > 100 | > 100 | – | > 100 | > 100 | > 100 | > 100 | > 100 | > 100 | > 100 | > 100 | > 100 | – | – | > 100 | > 100 | –
10 | CC(C)OP(=O)(OC(C)C)/C(=N/N)NNc1ccc([N+](=O)[O-])cc1 | > 100 | – | > 100 | > 100 | > 100 | – | > 100 | > 100 | > 100 | > 100 | > 100 | > 100 | > 100 | – | > 100 | – | – | > 100 | > 100 | –
11 | CC[C@@H](C(=O)[C@@H](C)[C@@H](O)[C@H](C)CCc1ccc(C)c(O)c1C(=O)O)[C@H]1O[C@](CC)([C@H]2CC[C@](O)(CC)[C@H](C)O2)C[C@@H]1C | 12 | – | 2.42 | 19.3 | 9.09 | – | 1.54 | 11.4 | 3.82 | 11.3 | 5.46 | 14.3 | 12.4 | 10.2 | 9 | – | – | 11.9 | 4.04 | –
12 | COC(=O)N/N=C/c1oc(-c2ccccc2)c(-c2ccccc2)c1[N+](=O)[O-] | > 100 | – | > 100 | > 100 | > 100 | – | > 100 | > 100 | – | > 100 | > 100 | > 100 | > 100 | > 100 | – | – | – | > 100 | > 100 | –
13 | O=C1c2nn(-c3ccccc3)nc2C(c2ccccc2)N1c1ccccc1 (stereo not given) | > 100 | – | > 100 | > 100 | > 100 | – | – | > 100 | > 100 | > 100 | > 100 | > 100 | > 100 | – | > 100 | – | – | > 100 | > 100 | –
14 | NC(=S)N1N=C2c3ccccc3CC[C@H]2[C@@H]1c1cccs1 | > 100 | – | 80.2 | > 100 | > 100 | – | 42.8 | > 100 | 79 | > 100 | > 100 | > 100 | > 100 | > 100 | > 100 | – | – | > 100 | > 100 | –
15 | CC12CC[C@H](O)C(C)(C)[C@H]1CC[C@](C)(O)C2COc1ccc2ccc(=O)oc2c1 (stereo not given in full) | > 100 | – | > 100 | – | > 100 | – | > 100 | > 100 | > 100 | > 100 | > 100 | > 100 | > 100 | > 100 | > 100 | – | – | > 100 | > 100 | –
16 | C[C@@H](NC(=O)OC1C=CC2(CC1)C(=O)N(C)c1ccccc12)c1cccc2ccccc12 (stereo not given in full) | > 25 | > 25 | – | > 25 | > 25 | > 25 | 14.7 | > 25 | > 25 | > 25 | – | > 25 | > 25 | > 25 | > 25 | > 25 | > 25 | > 25 | > 25 | –
17 | CCOc1ccc(N=Nc2ccc3oc(=O)c(C(=O)Nc4ccc(OC)cc4)cc3c2)cc1 | 55.6 | – | > 100 | > 100 | 78.4 | – | 20.4 | 36.8 | 54.4 | > 100 | 51 | 67.6 | 78 | 84.8 | 86.7 | – | – | > 100 | 93.1 | –
18 | COC(=O)C(Cc1ccccc1I)C1=CCC2(CC1)OCCO2 (stereo not given) | 58.7 | > 100 | 56.5 | 54.5 | > 100 | 55.8 | 41.5 | > 100 | 75.4 | 97.1 | > 100 | > 100 | 66.3 | > 100 | > 100 | > 100 | 39.7 | 82.8 | 59.3 | –
19 | CCN1CC2=C(NC(=S)NC2c2cc(OC)c(OC)c(OC)c2)/C(=C/c2cc(OC)c(OC)c(OC)c2)C1 (stereo not given) | > 100 | > 100 | 31.5 | > 100 | 37.7 | > 100 | 56.7 | 88.8 | > 100 | > 100 | – | 61.6 | 67.7 | > 100 | > 100 | > 100 | – | > 100 | > 100 | > 100
20 | CC(=O)OCC12C(OC(C)=O)C[C@@H](C)C3(CC(c4ccoc4)OC3=O)C1CCC(O)C21CO1 (stereo not given in full) | > 100 | > 100 | > 100 | > 100 | > 100 | > 100 | > 100 | > 100 | > 100 | > 100 | > 100 | > 100 | > 100 | – | – | > 100 | – | > 100 | > 100 | > 100
21 | Cc1nc2ccccc2c(=O)n1NC(=O)c1ccccc1O | > 100 | > 100 | – | > 100 | > 100 | – | > 100 | > 100 | – | > 100 | > 100 | > 100 | > 100 | > 100 | > 100 | > 100 | – | > 100 | > 100 | > 100
22 | CC(=O)OC1CC2(c3ccccc3)C(=O)c3ccccc3N2O1 (stereo not given) | – | – | > 100 | – | > 100 | – | > 100 | > 100 | – | > 100 | > 100 | > 100 | > 100 | > 100 | > 100 | – | – | > 100 | > 100 | –
23 | O=C1Nc2ccccc2Nc2nc3cccccc-3c21 | > 100 | – | > 100 | > 100 | > 100 | – | > 100 | > 100 | > 100 | – | > 100 | > 100 | > 100 | > 100 | > 100 | – | – | > 100 | > 100 | –
24 | COc1ccc(C2=NN(c3ccccc3)C(c3cc4cc(Br)ccc4nc3Cl)C2)cc1 (stereo not given) | > 25 | – | > 25 | > 25 | > 25 | > 25 | > 25 | – | > 25 | – | > 25 | > 25 | > 25 | > 25 | > 25 | > 25 | > 25 | > 25 | – | > 25
25 | CSc1nc2c(N)ncnc2n1C | > 100 | > 100 | > 100 | > 100 | > 100 | > 100 | – | > 100 | > 100 | > 100 | > 100 | > 100 | > 100 | > 100 | > 100 | > 100 | > 100 | > 100 | > 100 | –
26 | Cc1ccc(/C(=C/C=C(C#N)C#N)Sc2cc(Cl)ccc2Cl)cc1 | 3.33 | 13 | 35.5 | 19.4 | 43.9 | 7.58 | – | – | > 100 | 7.8 | 12.4 | – | > 100 | 27.8 | 46.6 | 13.9 | 67.5 | > 100 | 15.3 | –
27 | CC1(C)C2CCC3(OCCO3)C1C1OC12 (stereo not given) | > 100 | – | > 100 | > 100 | > 100 | – | > 100 | – | > 100 | > 100 | > 100 | > 100 | > 100 | > 100 | > 100 | – | – | > 100 | – | –
28 | O=C(Nc1ccc(Cl)cc1)/C(Cc1cccc[n+]1[O-])=N\Nc1ccc([N+](=O)[O-])cc1[N+](=O)[O-] | > 100 | – | > 100 | > 100 | > 100 | – | > 100 | > 100 | > 100 | > 100 | > 100 | > 100 | > 100 | > 100 | > 100 | – | – | > 100 | > 100 | –
29 | Nc1nc(NNc2ccc(Cl)c(Cl)c2)cc(=O)[nH]1 | 33.1 | > 100 | > 100 | > 100 | > 100 | > 100 | 64.4 | 44.7 | – | > 100 | > 100 | > 100 | > 100 | – | > 100 | > 100 | – | > 100 | – | 82.5
